In patent US20130303562A1, “CHEMICAL AND RNAI SUPPRESSORS OF NEUROTOXICITY IN HUNTINGTON'S DISEASE” (priority 2010, published 2013):
“Also recorded” adds a separate entry of the source.

Key:
Drosophila HD model = experiment: Early dosing of carbenoxolone in Drosophila HD model (lifespan, motor control); assay type: in vivo
HD model strain mice [1] = experiment: Rotarod assay in HD model strain mice; assay type: in vivo, mouse; details: treated from 4 weeks, tested at 8 weeks of age, vs untreated HD mice
Excerpt: Mouse strains: Mouse strain names provided herein adhere to the Guidelines for Nomenclature of Mouse and Rat Strains, Revised October 2011, International Committee on Standardized Genetic Nomenclature for Mice, accessible at www.informatics.jax.org/mgihome/nomen/strains.shtml. Official gene symbols, or, where appropriate, official mouse strain names of the Jackson Laboratory (www.jax.org, e.g., the Jackson Laboratory Mice Database at jaxmice.jax.org) are used. […]
Rotarod assay: Mice are habituated to balancing on a slowly rotating rotarod (5 rpm). […] The time to fall off the rod, onto a platform located ˜30 cm below the rod, is measured. The increase in latency to fall during the course of training is compared between four groups of mice for each candidate compound to be evaluated (Mutant+candidate, mutant no candidate, wild type+candidate, wild type no candidate). […]
At 8 weeks of age, motor and cognitive performance are tested in rotarod and water maze assays. Untreated mice are expected to show a significant impairment of motor and cognitive capabilities at 8 weeks of age, as measured by a shortened latency to fall in the rotarod assay, and a lengthened latency to escape in the water maze assy, respectively, as compared to wid type control mice.

HD model strain mice [2] = experiment: Morris water maze assay in HD model strain mice; assay type: in vivo, mouse; details: treated from 4 weeks, tested at 8 weeks of age, vs untreated HD mice
Excerpt: Mouse strains: Mouse strain names provided herein adhere to the Guidelines for Nomenclature of Mouse and Rat Strains, Revised October 2011, International Committee on Standardized Genetic Nomenclature for Mice, accessible at www.informatics.jax.org/mgihome/nomen/strains.shtml. Official gene symbols, or, where appropriate, official mouse strain names of the Jackson Laboratory (www.jax.org, e.g., the Jackson Laboratory Mice Database at jaxmice.jax.org) are used. There are numerous HD mouse strains suitable for candidate compound or nucleic acid construct screening, and for pre-clinical evaluations of candidates for the treatment of HD such as the HD model strains R6/2, R6/1, N171-82Q, CAG140, HdhQ111, BACHD, and CAG150 (Crook Z R, Housman D (2011) Huntington's disease: can mice lead the way to treatment? Neuron. 69:423-35; the entire contents of which are incorporated herein by reference). The HD model strains differ in their manifestations and time line of HD-like symptoms, e.g., motor and cognitive dysfunctions. […]
Morris water maze assay: The water maze assay measures spatial learning in mice. […] The sixth day has a single-trial probe test without the platform, and the time spent in each quadrant is recorded. […] The navigation of the mice is tracked by video camera, and the escape latency to the platform is recorded. […]

gap junction = details: cited from earlier work

## CC1(C)[C@@H](OC(=O)CCC(=O)O)CC[C@]2(C)[C@H]3C(=O)C=C4[C@@H]5C[C@@](C)(C(=O)O)CC[C@]5(C)CC[C@@]4(C)[C@]3(C)CC[C@@H]12 [Carbenoxolone]
Drosophila HD model; Drosophila HD model
  Motor control / chorea (defective motor coordination): improves motor control; also recorded: improves chorea
Drosophila HD model; early dosing
  Drosophila HD model lifespan: extends Drosophila HD model lifespan
HD model strain mice [1]
  Impairment of motor capabilities (latency to fall, rotarod): lesser degree of impairment
HD model strain mice [2]
  Impairment of cognitive capabilities (latency to escape, water maze): lesser degree of impairment
Gap junction
  Gap junction activity: block gap junction activity
